Structures can show the parent of a compound that is named as a salt.
Target: TLR2 (Homo sapiens, UniProt O60603)
Test: TLR2 agonist screening assay, HEK-Blue TLR2 reporter cell line (NF-kB-driven SEAP, absorbance at 600 nm)
Type: cell-based
Parameters: host or cells: HEK-293 (HEK-Blue TLR2 reporter cell line)
Conditions: HEK-Blue TLR2 reporter cells, agonist mode; average of all runs (Table 3)
Summary of the method: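 TLR2 engagement is scored through NF-kB-induced secreted alkaline phosphatase in HEK-293 cells, detected by substrate colour change at 600 nm after overnight compound treatment at 1% final DMSO. Potency is expressed as EC50.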

Sequence of TLR2 (O60603 21-784): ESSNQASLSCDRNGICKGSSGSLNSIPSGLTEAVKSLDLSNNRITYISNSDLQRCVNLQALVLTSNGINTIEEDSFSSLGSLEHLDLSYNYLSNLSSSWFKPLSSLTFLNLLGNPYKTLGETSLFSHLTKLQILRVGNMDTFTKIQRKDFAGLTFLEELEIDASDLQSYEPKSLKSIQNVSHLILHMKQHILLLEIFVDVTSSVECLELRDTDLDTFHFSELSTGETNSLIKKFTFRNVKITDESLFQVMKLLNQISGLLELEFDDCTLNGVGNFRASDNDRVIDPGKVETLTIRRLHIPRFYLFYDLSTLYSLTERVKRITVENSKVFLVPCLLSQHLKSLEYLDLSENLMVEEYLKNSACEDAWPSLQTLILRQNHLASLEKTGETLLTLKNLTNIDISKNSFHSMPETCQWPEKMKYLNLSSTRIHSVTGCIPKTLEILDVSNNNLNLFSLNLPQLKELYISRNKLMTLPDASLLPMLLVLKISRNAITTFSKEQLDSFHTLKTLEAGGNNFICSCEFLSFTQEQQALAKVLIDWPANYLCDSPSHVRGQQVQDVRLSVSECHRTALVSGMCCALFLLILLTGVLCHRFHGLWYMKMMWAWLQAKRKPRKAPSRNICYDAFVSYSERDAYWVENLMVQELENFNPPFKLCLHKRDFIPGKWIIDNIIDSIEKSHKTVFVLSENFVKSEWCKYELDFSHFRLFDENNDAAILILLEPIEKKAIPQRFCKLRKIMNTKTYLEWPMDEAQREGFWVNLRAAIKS

Compared with `CCCCCCNC(=O)[C@@H]1CN(C(=O)c2ccc(C(=O)N3C[C@@H](C(=O)N[C@H]4C[C@@H]4c4ccccc4)[C@H](C(=O)N[C@H]4C[C@@H]4c4ccccc4)C3)cc2)C[C@H]1C(=O)NCCCCCC` [Compound 035], `CCCCCCNC(=O)[C@@H]1C[C@@H](C(=O)NCCCCCC)CN(C(=O)c2ccc(C(=O)N3C[C@@H](C(=O)N[C@H]4C[C@@H]4c4ccccc4)[C@H](C(=O)N[C@H]4C[C@@H]4c4ccccc4)C3)cc2)C1` [Compound 043] is higher in EC50: 0.1 to 50 nM for the first, over 1000 nM for the second.

Compared with `CCCCCCCCN1CCN(C(=O)c2ccc(C(=O)N3C[C@@H](C(=O)N[C@H]4C[C@@H]4c4ccccc4)[C@H](C(=O)N[C@H]4C[C@@H]4c4ccccc4)C3)cc2)C[C@@H]1C(=O)NCCCCCC` [Compound 037, (3S,4S)-1-(4-((R)-3-(hexylcarbamoyl)-4-octylpiperazine-1-carbonyl)benzoyl)-N3,N4-bis((1S,2R)-2-phenylcyclopropyl)pyrrolidine-3,4-dicarboxamide formate], `CCCCCCCCC(=O)N1CCN(C(=O)c2ccc(C(=O)N3C[C@@H](C(=O)N[C@H]4C[C@@H]4c4ccccc4)[C@H](C(=O)N[C@H]4C[C@@H]4c4ccccc4)C3)cc2)CC1C(=O)NCCCCCC` (stereo partly drawn) [Compound 051, (3S,4S)-1-(4-(3-(hexylcarbamoyl)-4-nonanoylpiperazine-1-carbonyl)benzoyl)-N3,N4-bis((1S,2R)-2-phenylcyclopropyl)pyrrolidine-3,4-dicarboxamide] is lower in EC50: 51 to 350 nM for the first, 0.1 to 50 nM for the second.

Compared with `CCCCCCNC(=O)[C@@H]1CN(C(=O)c2ccc(C(=O)N3C[C@@H](C(=O)N[C@H]4C[C@@H]4c4ccccc4)[C@H](C(=O)N[C@H]4C[C@@H]4c4ccccc4)C3)cc2)C[C@H]1NC(=O)CCCCCC` [Compound 039], `CCCCCCCC(=O)N1CCN(C(=O)c2ccc(C(=O)N3C[C@@H](C(=O)N[C@H]4C[C@@H]4c4ccccc4)[C@H](C(=O)N[C@H]4C[C@@H]4c4ccccc4)C3)cc2)CC1C(=O)NCCCCC` (stereo partly drawn) [Compound 052, (3S,4S)-1-(4-(4-octanoyl-3-(pentylcarbamoyl)piperazine-1-carbonyl)benzoyl)-N3,N4-bis((1S,2R)-2-phenylcyclopropyl)pyrrolidine-3,4-dicarboxamide] is lower in EC50: over 1000 nM for the first, 0.1 to 50 nM for the second. The second is the more potent here.

First: CCCCCCCC(=O)N1CCN(C(=O)c2ccc(C(=O)N3C[C@@H](C(=O)N[C@H]4C[C@@H]4c4ccccc4)[C@H](C(=O)N[C@H]4C[C@@H]4c4ccccc4)C3)cc2)CC1C(=O)N[C@H]1C[C@@H]1c1ccccc1 (stereo partly shown) [Compound 040]
Second: CCCCCCCC(=O)N1CCN(C(=O)c2ccc(C(=O)N3C[C@@H](C(=O)N[C@H]4C[C@@H]4c4ccccc4)[C@H](C(=O)N[C@H]4C[C@@H]4c4ccccc4)C3)cc2)CC1C(=O)NCC (stereo partly drawn) [Compound 048, (3S,4S)-1-(4-(3-(ethylcarbamoyl)-4-octanoylpiperazine-1-carbonyl)benzoyl)-N3,N4-bis ((1S,2R)-2-phenylcyclopropyl) pyrrolidine-3,4-dicarboxamide]
The EC50 of the first is higher: over 1000 nM for the first, 351 to 1000 nM for the second.

`CCCCCCNC(=O)C1CN(C(=O)c2ccc(C(=O)N3C[C@@H](C(=O)N[C@H]4C[C@@H]4c4ccccc4)[C@H](C(=O)N[C@H]4C[C@@H]4c4ccccc4)C3)cc2)CCN1C(=O)CCc1ccc(F)cc1` (stereo partly drawn) [Compound 041, (3S,4S)-1-(4-(4-(3-(4-fluorophenyl)propanoyl)-3-(hexylcarbamoyl)piperazine-1-carbonyl)benzoyl)-N3,N4-bis((1S,2R)-2-phenylcyclopropyl)pyrrolidine-3,4-dicarboxamide] and `CCCCCCNC(=O)C1CN(C(=O)c2ccc(C(=O)N3C[C@@H](C(=O)N[C@H]4C[C@@H]4c4ccccc4)[C@H](C(=O)N[C@H]4C[C@@H]4c4ccccc4)C3)cc2)CCN1C(=O)CCC` (stereo partly drawn) [Compound 055, (3S,4S)-1-(4-(4-butyryl-3-(hexylcarbamoyl)piperazine-1-carbonyl)benzoyl)-N3,N4-bis((1S,2R)-2-phenylcyclopropyl)pyrrolidine-3,4-dicarboxamide] fall in the same range of EC50: 351 to 1000 nM for the first, 351 to 1000 nM for the second.

First: CCCCCCNC(=O)C1CN(C(=O)c2ccc(C(=O)N3C[C@@H](C(=O)N[C@H]4C[C@@H]4c4ccccc4)[C@H](C(=O)N[C@H]4C[C@@H]4c4ccccc4)C3)cc2)CCN1 (stereo partly drawn) [Compound 042, (3S,4S)-1-(4-(3-(hexylcarbamoyl)piperazine-1-carbonyl)benzoyl)-N3,N4-bis((1S,2R)-2-phenylcyclopropyl)pyrrolidine-3,4-dicarboxamide formate]
Second: CCCCCCNC(=O)C1CN(C(=O)c2ccc(C(=O)N3C[C@@H](C(=O)N[C@H]4C[C@@H]4c4ccccc4)[C@H](C(=O)N[C@H]4C[C@@H]4c4ccccc4)C3)cc2)CCN1C(=O)CCCCC (stereo partly drawn) [Compound 050, (3S,4S)-1-(4-(4-hexanoyl-3-(hexylcarbamoyl)piperazine-1-carbonyl)benzoyl)-N3,N4-bis((1S,2R)-2-phenylcyclopropyl)pyrrolidine-3,4-dicarboxamide]
The EC50 of the first is higher: 351 to 1000 nM for the first, 51 to 350 nM for the second. The second is the more potent here.

Compared with `CCCCCCCS(=O)(=O)N1CCN(C(=O)c2ccc(C(=O)N3C[C@@H](C(=O)N[C@H]4C[C@@H]4c4ccccc4)[C@H](C(=O)N[C@H]4C[C@@H]4c4ccccc4)C3)cc2)CC1C(=O)NCCCCCC` (stereo partly shown) [Compound 047], `CCCCCCCNC(=O)C1CN(C(=O)c2ccc(C(=O)N3C[C@@H](C(=O)N[C@H]4C[C@@H]4c4ccccc4)[C@H](C(=O)N[C@H]4C[C@@H]4c4ccccc4)C3)cc2)CCN1C(=O)CCCCCCC` (stereo partly shown) [Compound 058] is lower in EC50: over 1000 nM for the first, 51 to 350 nM for the second. The second is the more potent here.

First: CCCCCCNC(=O)C1CN(C(=O)c2ccc(C(=O)N3C[C@@H](C(=O)N[C@H]4C[C@@H]4c4ccccc4)[C@H](C(=O)N[C@H]4C[C@@H]4c4ccccc4)C3)cc2)CCN1C(=O)NCCCCCC (stereo partly shown) [Compound 049]
Second: CCCCCCCCCC(=O)N1CCN(C(=O)c2ccc(C(=O)N3C[C@@H](C(=O)N[C@H]4C[C@@H]4c4ccccc4)[C@H](C(=O)N[C@H]4C[C@@H]4c4ccccc4)C3)cc2)CC1C(=O)NCCCCCC (stereo partly drawn) [Compound 064, (3S,4S)-1-(4-(4-decanoyl-3-(hexylcarbamoyl)piperazine-1-carbonyl)benzoyl)-N3,N4-bis((1S,2R)-2-phenylcyclopropyl)pyrrolidine-3,4-dicarboxamide]
The EC50 of the first is higher: over 1000 nM for the first, 0.1 to 50 nM for the second. The second is the more potent here.

`CCCCCCCCCCCC(=O)N1CCN(C(=O)c2ccc(C(=O)N3C[C@@H](C(=O)N[C@H]4C[C@@H]4c4ccccc4)[C@H](C(=O)N[C@H]4C[C@@H]4c4ccccc4)C3)cc2)CC1C(=O)NCCCCCC` (stereo partly drawn) [Compound 057, (3S,4S)-1-(4-(4-dodecanoyl-3-(hexylcarbamoyl)piperazine-1-carbonyl)benzoyl)-N3,N4-bis((1S,2R)-2-phenylcyclopropyl)pyrrolidine-3,4-dicarboxamide] and `CCCCCCCCCCNC(=O)C1CN(C(=O)c2ccc(C(=O)N3C[C@@H](C(=O)N[C@H]4C[C@@H]4c4ccccc4)[C@H](C(=O)N[C@H]4C[C@@H]4c4ccccc4)C3)cc2)CCN1C(=O)CCCCCCC` (stereo partly drawn) [Compound 066, (3S,4S)-1-(4-(3-(decylcarbamoyl)-4-octanoylpiperazine-1-carbonyl)benzoyl)-N3,N4-bis((1S,2R)-2-phenylcyclopropyl)pyrrolidine-3,4-dicarboxamide] fall in the same range of EC50: 51 to 350 nM for the first, 51 to 350 nM for the second.

Compared with `CCCCCCCCNC(=O)C1CN(C(=O)c2ccc(C(=O)N3C[C@@H](C(=O)N[C@H]4C[C@@H]4c4ccccc4)[C@H](C(=O)N[C@H]4C[C@@H]4c4ccccc4)C3)cc2)CCN1C(=O)CCCCCCC` (stereo partly drawn) [Compound 065, (3S,4S)-1-(4-(4-octanoyl-3-(octylcarbamoyl)piperazine-1-carbonyl)benzoyl)-N3,N4-bis((1S,2R)-2-phenylcyclopropyl)pyrrolidine-3,4-dicarboxamide], `CCCCCCCCCCCCCCNC(=O)[C@@H]1CN(C(=O)c2ccc(C(=O)N3C[C@@H](C(=O)N[C@H]4C[C@@H]4c4ccccc4)[C@H](C(=O)N[C@H]4C[C@@H]4c4ccccc4)C3)cc2)CCN1C` [Compound 069, (3S,4S)-1-(4-((S)-4-methyl-3-(tetradecylcarbamoyl)piperazine-1-carbonyl)benzoyl)-N3,N4-bis ((1S,2R)-2-phenylcyclopropyl) pyrrolidine-3,4-dicarboxamide formate] is higher in EC50: 51 to 350 nM for the first, 351 to 1000 nM for the second.

First: O=C(N[C@H]1C[C@@H]1c1ccccc1)[C@@H]1CN(C(=O)c2cnc(C(=O)N3C[C@@H](C(=O)N[C@H]4C[C@@H]4c4ccccc4)[C@H](C(=O)N[C@H]4C[C@@H]4c4ccccc4)C3)cn2)C[C@H]1C(=O)N[C@H]1C[C@@H]1c1ccccc1 [Compound 067]
Second: O=C(N[C@H]1C[C@@H]1c1ccccc1)[C@@H]1CN(C(=O)c2cnc(C(=O)N3C[C@@H](C(=O)N[C@H]4C[C@@H]4c4ccccc4)[C@H](C(=O)N[C@H]4C[C@@H]4c4ccccc4)C3)nc2)C[C@H]1C(=O)N[C@H]1C[C@@H]1c1ccccc1 [Compound 071, (3S,3'S,4S,4'S)-1,1′-(pyrimidine-2,5-dicarbonyl)bis(N3,N4-bis((1S,2R)-2-phenylcyclopropyl)pyrrolidine-3,4-dicarboxamide)]
The EC50 of the first is higher: over 1000 nM for the first, 51 to 350 nM for the second. The second is the more potent here.

`O=C(N[C@H]1C[C@@H]1c1ccccc1)[C@@H]1CN(C(=O)C23CC(C(=O)N4C[C@@H](C(=O)N[C@H]5C[C@@H]5c5ccccc5)[C@H](C(=O)N[C@H]5C[C@@H]5c5ccccc5)C4)(C2)C3)C[C@H]1C(=O)N[C@H]1C[C@@H]1c1ccccc1` [Compound 068] and `CCCCCCNC(=O)[C@@H](CNC(=O)c1ccc(C(=O)N2C[C@@H](C(=O)N[C@H]3C[C@@H]3c3ccccc3)[C@H](C(=O)N[C@H]3C[C@@H]3c3ccccc3)C2)cc1)NC(=O)CCCCCC` [Compound 070, (3S,4S)-1-(4-(((R)-2-heptanamido-3-(hexylamino)-3-oxopropyl)carbamoyl)benzoyl)-N3,N4-bis((1S,2R)-2-phenylcyclopropyl)pyrrolidine-3,4-dicarboxamide] cannot be ordered by EC50: over 1000 nM for the first, over 1000 nM for the second.

Work on `CCCCCCCC(=O)N1CC(=O)N(Cc2ccc(C(=O)N3C[C@@H](C(=O)N[C@H]4C[C@@H]4c4ccccc4)[C@H](C(=O)N[C@H]4C[C@@H]4c4ccccc4)C3)cc2)C[C@@H]1C(=O)NCCCCCC` [Compound 074, (3S,4S)-1-(4-(((R)-5-(hexylcarbamoyl)-4-octanoyl-2-oxopiperazin-1-yl)methyl)benzoyl)-N3,N4-bis((1S,2R)-2-phenylcyclopropyl)pyrrolidine-3,4-dicarboxamide] yielded an EC50 of 51 to 350 nM.

Source: patent US11951094B2, “TLR2 modulator compounds, pharmaceutical compositions and uses thereof” (Axial Therapeutics, Inc., priority 2020, dated 2024)
